Columns and labels:
[1] = test system: human pituitary gland tissues; experiment: binding affinity to human pituitary gland tissues; details: compared with Ghrelin, hexarelin, MK 0677 and JMV 1843
GH release [2] = experiment: stimulation of GH release in vitro
GH release [3] = experiment: GH release in vivo after subcutaneous injection in neonatal rats

`CC(C)(N)C(=O)N[C@H](Cc1c[nH]c2ccccc12)C(=O)N[C@@H](C=NOCC(N)=O)Cc1c[nH]c2ccccc12` [(Ia), Aib-D-Trp-D-Trpψ[CH=N∼O]Gly-NH2] was tested, and the binding affinity [1] was “comparable to that of the natural ligand Ghrelin and superior to the binding affinity of the synthetic GH secretagogues”, the “stimulating the GH release in vitro” value (GH release [2]) was “remarkably potent” and the “stimulating the GH release in vivo” value (GH release [3]; in vivo) was “remarkably potent”. The “amount of growth hormone released” value (GH release [3]; neonatal rats, injected subcutaneously, compared with MK 0677 and hexarelin) was “exceeded the amount released when the standard GH secretagogues MK 0677 and hexarelin were administered”.

Source: patent EP1756142B1, “PSEUDOPEPTIDES GROWTH HORMONE SECRETAGOGUES” (Mediolanum Farmaceutici S.p.A., priority 2004, dated 2008)
